We go through three compounds from ChEMBL document CHEMBL1152766, “Bioactive constituents from the leaves of Clinacanthus nutans Lindau” (Bioorg Med Chem, 2009).

In data set [1] the test system is Human alphaherpesvirus 1. Kind of data set: Antiviral activity against 1000 PFU/ml infectious dose of HSV1 strain F infected in african green monkey Vero cells assessed as inhibition of virus in pre-viral entry step at 6.21 uM after 72 hrs by plaque reduction assay. The data set is classed as functional. More on the design: scale not given: the % may be the effect or the level left.

In data set [2] the test system is Human alphaherpesvirus 1. The data set can be described thus: Antiviral activity against 1000 PFU/ml infectious dose of HSV1 strain F infected in african green monkey Vero cells after 72 hrs by plaque reduction assay. It is filed as functional, organism-based. Conditions: Human alphaherpesvirus 1, strain F.
Data set [3] in a line: Cytotoxicity against african green monkey Vero cells after 72 hrs. It is filed as cell-based. The note with it: chlorocebus sabaeus, read-out: MNCC.
In data set [4] the test system is Human alphaherpesvirus 1. The data set can be described thus: Antiviral activity against 1000 PFU/ml infectious dose of HSV1 strain F infected in african green monkey Vero cells assessed as inhibition of virus in post-viral entry step at 6.21 uM after 72 hrs by plaque reduction assay. The data set is classed as functional. More on the design: scale not given: the % may be the effect or the level left.

Data set [5] has as its system Human alphaherpesvirus 1. Kind of data set: Antiviral activity against 1000 PFU/ml infectious dose of HSV1 strain F infected in african green monkey Vero cells assessed as inhibition of virus in post-viral entry step at 5.89 uM after 72 hrs by plaque reduction assay. It is filed as functional. On the set-up: scale not given: the % may be the effect or the level left.

In data set [6] the test system is Human alphaherpesvirus 1. Kind of data set: Antiviral activity against 1000 PFU/ml infectious dose of HSV1 strain F infected in african green monkey Vero cells assessed as inhibition of virus in pre-viral entry step at 5.89 uM after 72 hrs by plaque reduction assay. The data set is classed as functional. On the set-up: scale not given: the % may be the effect or the level left.

For `C=Cc1c(C)c2cc3nc(c4c5[nH]c(cc6nc(cc1[nH]2)C(C)=C6CC)c(C)c5C(=O)[C@@]4(O)C(=O)OC)[C@@H](CCC(=O)O/C=C(\C)CCCC(C)CCCC(C)CCCC(C)C)[C@@H]3C` (some centres not stated), the Activity in the data set with Human alphaherpesvirus 1 [1] is 100%; with Human alphaherpesvirus 1 [4], 30%. In the data set with Human alphaherpesvirus 1 [2], this compound gave a half-inhibitory concentration (IC50) of 3.11 nM. Moreover, in data set [3], the MNTC at 72 h worked out at 6.21 µM.

As for `C=Cc1c(C)c2cc3nc(c4c5[nH]c(cc6nc(cc1[nH]2)C(C)=C6CC)c(C)c5C(=O)[C@]4(O)C(=O)OC)[C@@H](CCC(=O)O/C=C(\C)CCCC(C)CCCC(C)CCCC(C)C)[C@@H]3C` (some centres not stated), the Activity in the data set on Human alphaherpesvirus 1 [1] came to 100%; with Human alphaherpesvirus 1 [4], 30%. In the data set with Human alphaherpesvirus 1 [2], this compound came in with an IC50 of 3.11 nM. For the same compound, in data set [3], the MNTC at 72 h amounted to 6.21 µM.

Take `C=Cc1c(C)c2cc3nc(c4c5[nH]c(cc6nc(cc1[nH]2)C(C=O)=C6CC)c(C)c5C(=O)[C@@]4(O)C(=O)OC)[C@@H](CCC(=O)O/C=C(\C)CCCC(C)CCCC(C)CCCC(C)C)[C@@H]3C` (some centres not stated) [13(2)-HYDROXY-(13(2)-R)-PHAEOPHYTIN B]: the Activity in the data set with Human alphaherpesvirus 1 [5] is 30%; in the data set on Human alphaherpesvirus 1 [6], 100%. This compound gave an IC50 in the data set with Human alphaherpesvirus 1 [2] of 1.96 nM. The MNTC at 72 h in data set [3] was determined as 5.89 µM.
